Data from US10910085B2, “Methods of making polypeptides with non-standard amino acids using genomically recoded organisms” (President and Fellows of Harvard College, priority 2014, dated 2021).

Columns and labels:
[1] = tested on: genomically recoded organism (GRO); assay: titration of optimal NSAA concentration by GFP_UAG fluorescence assay (FL/ODmax); assay type: cell-based, E. coli; conditions: GRO bearing synthetase/tRNA and GFP_UAG reporter plasmids; NSAA range 10 uM to 10 mM
Description: First, genomically recoded organisms (“GRO”) as described above were cultured in triplicate in LB-Lennox broth, across a dilution series from 1 uM to 10 mM (incl. 0 uM) NSAA in a 96-well plate. GRO growth (OD600) was kinetically monitored to quantify growth rates and reductions were measured as time to OD600=0.4 and Vmax (dODmax/dt). These experiments helped define the sub-toxic concentration range of an NSAA of interest. Second, the GRO strain was transformed with an L-arabinose-inducible plasmid bearing the synthetase/tRNA that are specific for the NSAA side chain reactivity being evaluated. See Lajoie, M. J. et al. Genomically recoded organisms expand biological functions. […] Only GROs will read these codons as sense codons, not terminate the GFP_UAG translation, and generate NSAA-containing GFP that fluoresces. Patent translation of GFP_UAG (e.g., fluorescence) requires culture in NSAA and transformation with a plasmid bearing the proper synthetase/tRNA pair to use that NSAA. In this way, GFP fluorescence can be a quantitative metric for NSAA-containing protein translation. […] Due to auto-fluorescence of LB-Lennox media, the cells were washed twice in phosphate-buffered saline (pH 7.2) by centrifugation at 4,000×g for 5 minutes. […] GFP translation was normalized by OD600 as fluorescence divided by OD600 when measured (FL/OD), and optimal concentration of NSAA was FL/ODmax.

[2] = tested on: genomically recoded organism (GRO); assay type: cell-based, E. coli; conditions: pAzF held constant at 1 mM; for reductions in FL/OD (GFP fluorescence divided by OD600): alkyne containing compound varied from 10 uM-10 mM, GRO culture; for reductions in OD consistent with reaction with pAzF: canonical amino acid controls
Description: To meet the third criteria, NSAA expression using previously evolved amino acyl synthetase/tRNA pairs was used. Synthetases charge a cognate amino acid substrate onto the cognate tRNA pair. An amino acid, a synthetase, and a tRNA form a triad that is required to make that amino acid competent for translation and addition to the nascent polypeptide chain. Amino acid/synthetase/tRNA triads are generally specific thereby preserving the fidelity of the translation of genetic code into proteins. As such, new synthetase/tRNA pairs that function specifically with each other are generated and used to add new NSAAs to the genetic code (or to evaluate the bio-orthogonality of bond-forming NSAA candidates). Alternatively, known synthetase/tRNA pairs are used to evaluate the bio-orthgonality of bond-forming NSAA candidate pairs.
First, genomically recoded organisms (“GRO”) as described above were cultured in triplicate in LB-Lennox broth, across a dilution series from 1 uM to 10 mM (incl. 0 uM) NSAA in a 96-well plate. GRO growth (OD600) was kinetically monitored to quantify growth rates and reductions were measured as time to OD600=0.4 and Vmax (dODmax/dt). These experiments helped define the sub-toxic concentration range of an NSAA of interest. Second, the GRO strain was transformed with an L-arabinose-inducible plasmid bearing the synthetase/tRNA that are specific for the NSAA side chain reactivity being evaluated. See Lajoie, M. J. et al. Genomically recoded organisms expand biological functions. Science 342, 357-360, doi:10.1126/science.1241459 (2013) hereby incorporated by reference in its entirety. […] Only GROs will read these codons as sense codons, not terminate the GFP_UAG translation, and generate NSAA-containing GFP that fluoresces. Patent translation of GFP_UAG (e.g., fluorescence) requires culture in NSAA and transformation with a plasmid bearing the proper synthetase/tRNA pair to use that NSAA. In this way, GFP fluorescence can be a quantitative metric for NSAA-containing protein translation. […] Due to auto-fluorescence of LB-Lennox media, the cells were washed twice in phosphate-buffered saline (pH 7.2) by centrifugation at 4,000×g for 5 minutes. After the second wash, the cells were resuspended in 150 uL PBS for measurement of growth (OD600) and GFP fluorescence (excitation 388 nm, emission 510 nm) using a Biotek Synergy H1/H4 or a Molecular Devices M5 Spectrophotometer. GFP translation was normalized by OD600 as fluorescence divided by OD600 when measured (FL/OD), and optimal concentration of NSAA was FL/ODmax.
Once optimal NSAA concentration was determined, a candidate NSAA is tested to determine whether it impairs translation of the other cognate pair. […] After culture and washing as above, FL/OD was measured and plotted as a function of the NSAA being varied. […]

Structure (SMILES) | reductions in FL/OD (GFP fluorescence divided by OD600) [2] | reductions in OD consistent with reaction with pAzF [2] | other results
[N-]=[N+]=Nc1ccc(C[C@H](N)C(=O)O)cc1 [pAzF, para-azido-phenylalanine] | – | – | optimal concentration of NSAA (FL/ODmax) [1]: 1 mM
C#CCONCC(=O)O [pPrG, propargyl-oxyglycine] | no reductions in FL/OD | – | –
N[C@@H](CO)C(=O)O [serine] | – | do not show any reductions in OD | –
N[C@@H](Cc1ccc(O)cc1)C(=O)O [tyrosine] | – | do not show any reductions in OD | –
C1#CCCCCCC1 [unsubstituted cyclo-octynes] | no reductions in FL/OD | – | –
